We go through 1 compound from patent publication US20150119391A1, “ANTI-TUMORAL COMPOSITION COMPRISING THE COMPOUND 1-(6--1,3-BENZOTHIAZOL-2-YL)-3-(2-MORPHOLIN-4-YLETHYL)UREA” (SANOFI, priority 2012, published 2015).

In brackets after ≈: the same amount, converted by molar mass. Read-outs that look alike come from different tables or passages of the source.

A short description of one data set: solubility in water. In kind it is physicochemical.
A short description of the next data set: pKa (weak base). Format: physicochemical.
Data set [1] is described as follows: Biopharmaceutics Classification System class / permeability characteristics. In kind it is physicochemical.
In data set [2] the test system is human Met-driven tumor cell lines. The data set is described as follows: in vitro anti-proliferative activity. Format: cell-based. The following applies: (nM), Met-driven tumor cell lines exclusively.
Data set [3] has as its system human Met-amplified models. The data set is described as follows: cellular anti-tumor activity as a single agent. In kind it is cell-based.
Data set [4] in a line: stability to steam sterilization. Format: physicochemical. The procedure:
The concentrated pharmaceutical composition is prepared by usual methods for the preparation of aqueous liquid pharmaceutical composition. Generally, the process comprises a sterilization step, which is typically carried out by sterilizing filtration followed by aseptic filling.

For `O=C(NCCN1CCOCC1)Nc1nc2ccc(Sc3nnc4ccc(-c5ccc(F)cc5)nn34)cc2s1` [Compound A, 1-(6-{[6-(4-fluorophenyl)[1,2,4]triazolo[4,3-b]pyridazin-3-yl]sulfanyl}-1,3-benzothiazol-2-yl)-3-(2-morpholin-4-ylethyl)urea], the solubility in the data set “solubility in water” is less than 0.1 µg/mL; in “solubility in water” (aqueous buffer, above pH 5), less than 0.1 µg/mL; in “solubility in water” (pH 1, simulated gastric fluid) it was roughly 90 µg/mL (≈ 163 µM); in the data set “solubility in water” (pH 3, aqueous buffer), roughly 20 µg/mL (≈ 36.3 µM). For the same compound, in the data set “pKa (weak base)”, the pKa was 6.4. In addition, in data set [1], the permeability characteristics result is “poor”. Further, the anti-proliferative activity entry in data set [2] is “highly potent”. For the same compound, in data set [3], the cellular anti-tumor activity entry was “highly potent”. Also, the “chemical stability on steam sterilization” value in data set [4] was “chemical degradation”.
